Measurements reported in publication PMC9057277 (RSC Advances, 2020).
Like-named read-outs stand apart in the source and are kept apart here.

How the values were obtained:
[1] = Stability towards liver microsomes of mice
[2] = log D7.4 by HPLC method; assay type: physicochemical; conditions: HPLC retention on ODP-50 4B column (Shodex Asahipak); pH 7.4, HPLC-based method
[3] = Ex vivo biodistribution in healthy rats; conditions: for Biodistribution BAT: brown adipose tissue; for Biodistribution BAT / Biodistribution adrenals / Biodistribution blood / Biodistribution brain / Biodistribution femur / Biodistribution harderian gland / Biodistribution heart / Biodistribution intestine / Biodistribution kidneys / Biodistribution liver / Biodistribution lung / Biodistribution muscle / Biodistribution pancreas / Biodistribution skin & hair / Biodistribution spleen / Biodistribution stomach / Biodistribution testes / Biodistribution thymus / Biodistribution thyroid gland / Biodistribution urine (calc.) / Biodistribution femur (femur uptake, 18F-defluorination) / Biodistribution WAT: i.v., n = 8, mean ± SD; for Biodistribution WAT: white adipose tissue
[4] = Metabolic stability in vivo: blood clearance, blood components, radiometabolites; parameters: species or system male Wistar rats; conditions: for half-life: male, Wistar, rat, arterial blood, iv, 70 MBq, i.v., arterial blood samples; for half-life / Intact compound in blood plasma: rats; for Radioactivity distribution in blood components: erythrocytes / Radioactivity distribution in blood components: plasma / Radioactivity distribution in blood components: plasma supernatant / Radioactivity distribution in blood components: plasma pellet (bound to plasma proteins) / Radioactivity distribution in blood components: plasma pellet: rat blood; for Radioactivity distribution in blood components: plasma pellet (bound to plasma proteins): + TCA precipitation; for Intact compound in blood plasma: radio-HPLC
[5] = target: T1, recombinant human COX-2 (Homo sapiens, UniProt P35354); experiment: COX Fluorescent Inhibitor Screening Assay Kit, COX-2; assay type: biochemical
T1 construct: purchased Cayman Chemical, Ann Arbor, MI 700100
T1 sequence (P35354 18-604): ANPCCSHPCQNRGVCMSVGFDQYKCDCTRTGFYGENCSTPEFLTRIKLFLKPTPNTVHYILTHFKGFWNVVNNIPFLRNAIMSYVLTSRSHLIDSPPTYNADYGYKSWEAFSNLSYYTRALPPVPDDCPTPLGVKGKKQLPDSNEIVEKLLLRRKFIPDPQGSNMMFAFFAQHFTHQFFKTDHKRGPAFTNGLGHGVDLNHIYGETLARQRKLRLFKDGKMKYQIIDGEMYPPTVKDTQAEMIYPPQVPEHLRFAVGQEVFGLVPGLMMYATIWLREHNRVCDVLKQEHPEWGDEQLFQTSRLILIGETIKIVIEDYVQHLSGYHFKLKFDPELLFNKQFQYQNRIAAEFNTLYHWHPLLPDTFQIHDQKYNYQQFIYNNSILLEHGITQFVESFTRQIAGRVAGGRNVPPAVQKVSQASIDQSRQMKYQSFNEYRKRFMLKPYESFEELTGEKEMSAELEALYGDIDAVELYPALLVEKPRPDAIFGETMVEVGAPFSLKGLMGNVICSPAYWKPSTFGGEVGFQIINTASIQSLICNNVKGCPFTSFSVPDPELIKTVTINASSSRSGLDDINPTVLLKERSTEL

[6] = target: T2, purified ovine COX-1 (Ovis aries, UniProt P05979); experiment: COX Fluorescent Inhibitor Screening Assay Kit, COX-1
T2 sequence (P05979 25-600): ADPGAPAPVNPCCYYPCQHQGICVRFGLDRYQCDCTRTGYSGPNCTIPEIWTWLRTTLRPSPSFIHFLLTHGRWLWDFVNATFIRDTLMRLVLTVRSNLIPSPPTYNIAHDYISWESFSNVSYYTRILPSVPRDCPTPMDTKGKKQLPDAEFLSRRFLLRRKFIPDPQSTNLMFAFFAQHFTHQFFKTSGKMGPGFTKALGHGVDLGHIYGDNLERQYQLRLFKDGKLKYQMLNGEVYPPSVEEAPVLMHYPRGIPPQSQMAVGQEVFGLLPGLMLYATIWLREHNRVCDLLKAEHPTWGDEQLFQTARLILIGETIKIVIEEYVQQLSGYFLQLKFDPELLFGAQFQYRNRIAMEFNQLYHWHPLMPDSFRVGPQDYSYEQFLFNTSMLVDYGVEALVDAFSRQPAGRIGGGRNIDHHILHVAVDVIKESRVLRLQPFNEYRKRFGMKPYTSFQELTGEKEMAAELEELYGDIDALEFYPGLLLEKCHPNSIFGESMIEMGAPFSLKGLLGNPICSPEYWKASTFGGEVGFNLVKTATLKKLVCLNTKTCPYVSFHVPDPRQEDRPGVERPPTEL
Method: 7.4.1 COX inhibition assay
The COX inhibition potency against ovine COX-1 and human COX-2 was determined using the
fluorescence-based COX assay ’COX Fluorescent Inhibitor Screening Assay Kit‘ (catalog number
reported by us.7 In brief, as a measure of COX mediated conversion of arachidonic acid to PG H2 in the
presence of different inhibitor concentrations this assay utilizes the peroxidase component of COX and
analyzes the formation of fluorescent resorufin. All compounds were assayed in a concentration range
of 10 nM to 100 μM, and every inhibitor concentration was assayed in duplicate.
as internal control. IC50 values were estimated using a nonlinear logistic regression ﬁtting procedure
(sigmoidal dose−response model) with Prism Software.

[7] = read-out: t1/2 distribution (blood clearance of intact compound)
[8] = read-out: t1/2 elimination (blood clearance of intact compound)

C[C@]12CC[C@H]3[C@@H](CCC4=CC(=O)CC[C@@]43C)[C@@H]1CC[C@@H]2O [Testosteron, reference compound]
conversion by mouse liver microsomes (positive control for oxidation) [1]: Complete conversion

[2H]C([2H])([18F])c1cc(-c2ccc(C)cc2)n(-c2ccc(S(C)(=O)=O)cc2)n1 [[D2,^18F]5a]
chromatographic logD [2]: 2.72 | Biodistribution BAT ([3]; 5 min p.i.): 3.31 ± 0.56 SUV | Biodistribution BAT ([3]; 60 min p.i.): 1.21 ± 0.11 SUV | Biodistribution adrenals ([3]; 5 min p.i.): 3.28 ± 0.52 SUV | Biodistribution blood ([3]; 5 min p.i.): 0.42 ± 0.04 SUV | Biodistribution brain ([3]; 5 min p.i.): 0.54 ± 0.12 SUV | Biodistribution femur ([3]; 5 min p.i.): 0.84 ± 0.09 SUV | Biodistribution harderian gland ([3]; 5 min p.i.): 1.94 ± 0.14 SUV | Biodistribution heart ([3]; 5 min p.i.): 0.76 ± 0.12 SUV | Biodistribution intestine ([3]; 5 min p.i.): 10.14 ± 1.96 %ID | Biodistribution kidneys ([3]; 5 min p.i.): 1.58 ± 0.24 SUV | Biodistribution liver ([3]; 5 min p.i.): 4.16 ± 0.29 SUV | Biodistribution lung ([3]; 5 min p.i.): 0.92 ± 0.14 SUV | Biodistribution muscle ([3]; 5 min p.i.): 0.52 ± 0.08 SUV | Biodistribution pancreas ([3]; 5 min p.i.): 1.37 ± 0.13 SUV | Biodistribution skin & hair ([3]; 5 min p.i.): 0.9 ± 0.15 SUV | Biodistribution spleen ([3]; 5 min p.i.): 0.56 ± 0.1 SUV | Biodistribution stomach ([3]; 5 min p.i.): 1.14 ± 0.57 %ID | Biodistribution testes ([3]; 5 min p.i.): 0.48 ± 0.04 SUV | Biodistribution thymus ([3]; 5 min p.i.): 0.95 ± 0.08 SUV | Biodistribution thyroid gland ([3]; 5 min p.i.): 0.95 ± 0.18 SUV | Biodistribution urine (calc.) ([3]; 5 min p.i.): 0.15 ± 1.91 %ID | Biodistribution adrenals ([3]; 60 min p.i.): 0.91 ± 0.15 SUV | Biodistribution blood ([3]; 60 min p.i.): 0.11 ± 0.01 SUV | Biodistribution brain ([3]; 60 min p.i.): 0.11 ± 0.02 SUV | Biodistribution femur (femur uptake, 18F-defluorination) ([3]; 60 min p.i.): 2.6 ± 0.3 SUV | Biodistribution harderian gland ([3]; 60 min p.i.): 0.5 ± 0.08 SUV | Biodistribution heart ([3]; 60 min p.i.): 0.16 ± 0.03 SUV | Biodistribution intestine ([3]; 60 min p.i.): 33.02 ± 3.53 %ID | Biodistribution kidneys ([3]; 60 min p.i.): 0.47 ± 0.06 SUV | Biodistribution liver ([3]; 60 min p.i.): 0.92 ± 0.19 SUV | Biodistribution lung ([3]; 60 min p.i.): 0.21 ± 0.03 SUV | Biodistribution muscle ([3]; 60 min p.i.): 0.19 ± 0.07 SUV | Biodistribution pancreas ([3]; 60 min p.i.): 0.62 ± 0.37 SUV | Biodistribution skin & hair ([3]; 60 min p.i.): 0.25 ± 0.04 SUV | Biodistribution spleen ([3]; 60 min p.i.): 0.22 ± 0.12 SUV | Biodistribution stomach ([3]; 60 min p.i.): 1.19 ± 0.49 %ID | Biodistribution testes ([3]; 60 min p.i.): 0.21 ± 0.04 SUV | Biodistribution thymus ([3]; 60 min p.i.): 0.21 ± 0.04 SUV | Biodistribution thyroid gland ([3]; 60 min p.i.): 0.45 ± 0.06 SUV | Biodistribution urine (calc.) ([3]; 60 min p.i.): 9.12 ± 3.68 %ID | Biodistribution WAT ([3]; 5 min p.i.): 2.79 ± 1.06 SUV | Biodistribution WAT ([3]; 60 min p.i.): 2.4 ± 0.28 SUV | half-life [4, 7]: 1.3 min | half-life [4, 8]: 17 min | Radioactivity distribution in blood components: erythrocytes ([4]; 60 min p.i., + TCA): 18% | Radioactivity distribution in blood components: plasma ([4]; 60 min p.i., + TCA): 73% | Radioactivity distribution in blood components: plasma supernatant ([4]; 60 min p.i., + TCA): 39% | Radioactivity distribution in blood components: plasma pellet (bound to plasma proteins) ([4]; 60 min p.i.): 29% | Radioactivity distribution in blood components: erythrocytes ([4]; 60 min p.i., - TCA): 16% | Radioactivity distribution in blood components: plasma ([4]; 60 min p.i., - TCA): 70% | Radioactivity distribution in blood components: plasma pellet ([4]; 60 min p.i., - TCA): 1% | Radioactivity distribution in blood components: plasma supernatant ([4]; 60 min p.i., - TCA): 73% | Intact compound in blood plasma ([4]; 20 min p.i.): 54% | Intact compound in blood plasma ([4]; 60 min p.i.): 52%

[2H]C([2H])(F)c1cc(-c2ccc(C)cc2)n(-c2ccc(S(C)(=O)=O)cc2)n1 [[D2]5a]
IC50 [5]: 970 nM | Selectivity index ([5]; IC50 (COX-1)/IC50 (COX-2)): >103 | IC50 [6]: > 100000 nM

Cc1ccc(-c2cc(C[18F])nn2-c2ccc(S(C)(=O)=O)cc2)cc1 [[^18F]5a, 3-([^18F]fluoromethyl)-1-[4-(methylsulfonyl)phenyl]-5-(p-tolyl)-1H-pyrazole]
chromatographic logD [2]: 2.72 | liver-to-bladder ratio (hepatobiliary vs renal excretion) ([3]; 60 min p.i.): 2.3 | Biodistribution BAT ([3]; 5 min p.i.): 2.21 ± 0.91 SUV | Biodistribution BAT ([3]; 60 min p.i.): 1.13 ± 0.29 SUV | Biodistribution adrenals ([3]; 5 min p.i.): 2.25 ± 1.19 SUV | Biodistribution blood ([3]; 5 min p.i.): 0.46 ± 0.15 SUV | Biodistribution brain ([3]; 5 min p.i.): 0.46 ± 0.14 SUV | Biodistribution femur ([3]; 5 min p.i.): 0.96 ± 0.53 SUV | Biodistribution harderian gland ([3]; 5 min p.i.): 1.5 ± 0.6 SUV | Biodistribution heart ([3]; 5 min p.i.): 0.79 ± 0.23 SUV | Biodistribution intestine ([3]; 5 min p.i.): 6.78 ± 2.69 %ID | Biodistribution kidneys ([3]; 5 min p.i.): 1.53 ± 0.49 SUV | Biodistribution liver ([3]; 5 min p.i.): 3.84 ± 1.52 SUV | Biodistribution lung ([3]; 5 min p.i.): 0.89 ± 0.38 SUV | Biodistribution muscle ([3]; 5 min p.i.): 0.35 ± 0.18 SUV | Biodistribution pancreas ([3]; 5 min p.i.): 0.97 ± 0.27 SUV | Biodistribution skin & hair ([3]; 5 min p.i.): 0.97 ± 0.31 SUV | Biodistribution spleen ([3]; 5 min p.i.): 0.53 ± 0.24 SUV | Biodistribution stomach ([3]; 5 min p.i.): 0.87 ± 0.65 %ID | Biodistribution testes ([3]; 5 min p.i.): 0.34 ± 0.16 SUV | Biodistribution thymus ([3]; 5 min p.i.): 0.76 ± 0.18 SUV | Biodistribution thyroid gland ([3]; 5 min p.i.): 0.71 ± 0.4 SUV | Biodistribution urine (calc.) ([3]; 5 min p.i.): 3.32 ± 4.35 %ID | Biodistribution adrenals ([3]; 60 min p.i.): 1.85 ± 1.91 SUV | Biodistribution blood ([3]; 60 min p.i.): 0.12 ± 0.04 SUV | Biodistribution brain ([3]; 60 min p.i.): 0.12 ± 0.04 SUV | Biodistribution femur (femur uptake, 18F-defluorination) ([3]; 60 min p.i.): 4.1 ± 0.6 SUV | Biodistribution harderian gland ([3]; 60 min p.i.): 0.64 ± 0.28 SUV | Biodistribution heart ([3]; 60 min p.i.): 0.15 ± 0.02 SUV | Biodistribution intestine ([3]; 60 min p.i.): 19.43 ± 2.27 %ID | Biodistribution kidneys ([3]; 60 min p.i.): 0.36 ± 0.19 SUV | Biodistribution liver ([3]; 60 min p.i.): 0.78 ± 0.2 SUV | Biodistribution lung ([3]; 60 min p.i.): 0.19 ± 0.06 SUV | Biodistribution muscle ([3]; 60 min p.i.): 0.21 ± 0.1 SUV | Biodistribution pancreas ([3]; 60 min p.i.): 0.44 ± 0.28 SUV | Biodistribution skin & hair ([3]; 60 min p.i.): 0.39 ± 0.2 SUV | Biodistribution spleen ([3]; 60 min p.i.): 0.18 ± 0.07 SUV | Biodistribution stomach ([3]; 60 min p.i.): 1.06 ± 0.42 %ID | Biodistribution testes ([3]; 60 min p.i.): 0.27 ± 0.17 SUV | Biodistribution thymus ([3]; 60 min p.i.): 0.28 ± 0.11 SUV | Biodistribution thyroid gland ([3]; 60 min p.i.): 0.67 ± 0.37 SUV | Biodistribution urine (calc.) ([3]; 60 min p.i.): 8.55 ± 2.53 %ID | Biodistribution WAT ([3]; 5 min p.i.): 1.45 ± 0.53 SUV | Biodistribution WAT ([3]; 60 min p.i.): 1.67 ± 0.23 SUV | half-life [4, 7]: 0.6 min | half-life [4, 8]: 19.5 min | Radioactivity distribution in blood components: erythrocytes ([4]; 60 min p.i., + TCA): 19% | Radioactivity distribution in blood components: plasma ([4]; 60 min p.i., + TCA): 71% | Radioactivity distribution in blood components: plasma supernatant ([4]; 60 min p.i., + TCA): 42% | Radioactivity distribution in blood components: plasma pellet (bound to plasma proteins) ([4]; 60 min p.i.): 25% | Radioactivity distribution in blood components: erythrocytes ([4]; 60 min p.i., - TCA): 17% | Radioactivity distribution in blood components: plasma ([4]; 60 min p.i., - TCA): 67% | Radioactivity distribution in blood components: plasma pellet ([4]; 60 min p.i., - TCA): 1% | Radioactivity distribution in blood components: plasma supernatant ([4]; 60 min p.i., - TCA): 80% | Intact compound in blood plasma ([4]; 20 min p.i.): 46% | Intact compound in blood plasma ([4]; 60 min p.i.): 28%
